Experimental data from article PMC3011871, “Purification and Biochemical Characterization of a Specific β-Glucosidase from the Digestive Fluid of Larvae of the Palm Weevil, Rhynchophorus palmarum” (Journal of Insect Science, 2009).

Legend:
[1] = tested on: T1, β-glucosidase from the digestive fluid of Rhynchophorus palmarum larvae; assay: glucose release by glucose oxidase-peroxidase, Lineweaver-Burk; assay type: biochemical; conditions: 100 mM acetate buffer pH 5.0, 37°C
T1 construct: gene cellobiase; native, purified from larval digestive fluid (Abidjan, Côte d'Ivoire); monomer, 58 kDa SDS-PAGE, 60 kDa gel filtration
From the text: glucose release by glucose oxidase-peroxidase, Lineweaver-Burk on β-glucosidase from the digestive fluid of Rhynchophorus palmarum larvae

[2] = tested on: T1, β-glucosidase from the digestive fluid of Rhynchophorus palmarum larvae; assay: p-nitrophenol release at […] nm, Lineweaver-Burk; assay type: biochemical; conditions: 100 mM acetate buffer pH 5.0, 37°C

Structure (SMILES)	Km [1] [µM]	Km [2] [µM]
OC[C@H]1O[C@@H](O[C@H]2[C@H](O)[C@@H](O)C(O)O[C@@H]2CO)[C@H](O)[C@@H](O)[C@@H]1O (some centres unmarked) [cellobiose]	310	
O=[N+]([O-])c1ccc(O[C@@H]2O[C@H](CO)[C@@H](O)[C@H](O)[C@H]2O)cc1 [p-nitrophenyl-β-D-glucopyranoside]		250
